Results: US11046716B2, “Beta-lactamase inhibitors” (priority 2015, dated 2021)

Experiments:
SHV-5 = target: T1, SHV-5 (Klebsiella pneumoniae, UniProt P0A3M1); assay: β-lactamase enzyme inhibition assay, SHV-5 (cefotaxime substrate); assay type: biochemical
T1 construct: made in house; host or cells: E. coli BL21(DE3)
How it was run: (§1)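 Untagged enzyme from E. coli BL21(DE3), purified by Capto S then Superdex 75; 15 min 37 °C preincubation with inhibitor; KPC-2 read with imipenem at 300 nm, SHV-5 with cefotaxime at 260 nm, OXA-1 with nitrocefin 100 μM final at 486 nm; 10 min kinetic read; IC50 vs uninhibited wells.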

KPC-2 = target: T2, KPC-2 (Klebsiella pneumoniae, UniProt Q9F663); assay: β-lactamase enzyme inhibition assay, KPC-2 (imipenem substrate); assay type: biochemical; details: Class A; imipenem substrate, 300 nm; read-out: KPC-2
T2 construct: made in house; host or cells: E. coli BL21(DE3)
T2 sequence (Q9F663 25-293, looked up): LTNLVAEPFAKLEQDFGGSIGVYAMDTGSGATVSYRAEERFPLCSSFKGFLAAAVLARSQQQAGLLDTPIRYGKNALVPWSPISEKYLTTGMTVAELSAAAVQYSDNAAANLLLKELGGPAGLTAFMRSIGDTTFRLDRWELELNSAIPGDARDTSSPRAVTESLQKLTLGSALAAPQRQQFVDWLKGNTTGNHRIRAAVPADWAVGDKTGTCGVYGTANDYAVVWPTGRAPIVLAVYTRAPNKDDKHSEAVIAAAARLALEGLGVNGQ
How it was run: as §1

VIM-2 = target: T3, VIM-2 (Escherichia coli, UniProt Q5U7L7); assay: β-lactamase enzyme inhibition assay, VIM-2 (nitrocefin substrate); assay type: biochemical; details: Class B; nitrocefin substrate, 486 nm; read-out: VIM-2
T3 construct: made in house; host or cells: E. coli BL21(DE3)
How it was run: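 Nitrocefin hydrolysis (100 μM final, A486 read for 10 min) by purified VIM-2 after a 15-min, 37° C enzyme–inhibitor preincubation. IC50 is the concentration halving initial hydrolysis rate, derived from percent inhibition against no-inhibitor wells.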

AmpC = target: T4, AmpC (Enterobacter cloacae, UniProt P05364); assay: β-lactamase enzyme inhibition assay, p99 AmpC (nitrocefin substrate); assay type: biochemical
T4 construct: made in house; host or cells: E. coli BL21(DE3)
T4 sequence (P05364 21-381): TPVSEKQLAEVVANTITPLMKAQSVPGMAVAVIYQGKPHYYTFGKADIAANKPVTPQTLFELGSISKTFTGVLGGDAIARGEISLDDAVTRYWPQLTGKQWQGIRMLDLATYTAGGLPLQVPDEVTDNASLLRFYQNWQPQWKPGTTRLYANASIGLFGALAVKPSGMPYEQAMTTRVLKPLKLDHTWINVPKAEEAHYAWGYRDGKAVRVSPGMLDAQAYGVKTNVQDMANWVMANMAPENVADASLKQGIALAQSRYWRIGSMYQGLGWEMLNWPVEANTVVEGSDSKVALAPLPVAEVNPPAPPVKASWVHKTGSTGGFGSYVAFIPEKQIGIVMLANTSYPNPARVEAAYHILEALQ
How it was run: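 Untagged enzyme from E. coli BL21(DE3), purified by Capto S then Superdex 75; 15 min 37 °C preincubation with inhibitor; 10 min kinetic read; IC50 vs uninhibited wells.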

OXA-48 = OXA-48 (UniProt Q6XEC0); assay: β-lactamase enzyme inhibition assay, Class D oxacillinase; assay type: biochemical; details: read-out: OXA-48
[1] = system: E. coli expressing the Class A Extended Spectrum Beta-Lactamase (ESBL) CTX-M-15; assay: Broth microdilution MIC assay with ceftazidime, E. coli CTX-M-15; assay type: cell-based; details: Fixed CAZ (ceftazidime) 4 μg/mL; E. coli ESBL4 CTX-M-15
How it was run: (§2)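 CLSI broth microdilution in cation-adjusted Mueller Hinton broth measured growth of β-lactamase-expressing strains, grown 3-5 h beforehand. The β-lactam partner was held at 4 μg/ml final while test compound was titrated 2-fold from 16 to 0.125 μg/mL final. After 16-20 h at 37° C, the compound MIC was determined by eye.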

[2] = system: E. cloacae expressing the Class C P99; assay: Broth microdilution MIC assay with ceftazidime, E. cloacae P99; assay type: cell-based; details: Fixed CAZ (ceftazidime) 4 μg/mL; E. cl. 144200 p99 AmpC
How it was run: as §2

[3] = system: K. pneumoniae expressing the Class A carbapenemase KPC-2; assay: Broth microdilution MIC assay with meropenem, K. pneumoniae KPC-2; assay type: cell-based; details: Fixed Mero (meropenem) 4 μg/mL; K. p. 156319 KPC-3
How it was run: as §2

[4] = system: P. aeruginosa expressing the Class B carbapenemase VIM-2; assay: Broth microdilution MIC assay with meropenem, P. aeruginosa VIM-2; assay type: cell-based; details: Fixed Mero (meropenem) 4 μg/mL; P. aerug. 2775 VIM-2
How it was run: as §2

[5] = system: K. pneumoniae expressing the class A carbapenemase KPC-2 and the class B carbapenemase VIM-4; assay: Broth microdilution MIC assay with meropenem, K. pneumoniae KPC-2 and VIM-4; assay type: cell-based; details: Fixed Mero (meropenem) 4 μg/mL; K. p. A-1797 KPC-2 VIM-4
How it was run: as §2

[6] = system: K. pneumoniae producing the Class D carbapenemase OXA-48; assay: Broth microdilution MIC assay with meropenem, K. pneumoniae OXA-48; assay type: cell-based; details: Fixed Mero (meropenem) 4 μg/mL; K. p. 11978 OXA-48
How it was run: as §2

T1 sequence (P0A3M1 22-286): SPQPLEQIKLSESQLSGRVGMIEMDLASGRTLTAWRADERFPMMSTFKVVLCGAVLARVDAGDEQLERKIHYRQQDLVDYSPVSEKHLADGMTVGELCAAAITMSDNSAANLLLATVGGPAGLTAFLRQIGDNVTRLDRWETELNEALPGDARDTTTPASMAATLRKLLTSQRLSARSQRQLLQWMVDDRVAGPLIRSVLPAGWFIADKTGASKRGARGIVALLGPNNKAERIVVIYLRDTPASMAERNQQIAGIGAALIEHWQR

Compound	IC50 (SHV-5) [nM]	IC50 (KPC-2) [nM]	IC50 (VIM-2) [nM]	IC50 (AmpC) [nM]	IC50 (OXA-48) [nM]	MIC (μg/mL) of Exemplary Compounds in presence of fixed β-lactams: E. coli ESBL4 CTX-M-15 [1]	MIC (μg/mL) of Exemplary Compounds in presence of fixed β-lactams: E. cl. 144200 p99 AmpC [2]	MIC (μg/mL) of Exemplary Compounds in presence of fixed β-lactams: K. p. 156319 KPC-3 [3]	MIC (μg/mL) of Exemplary Compounds in presence of fixed β-lactams: P. aerug. 2775 VIM-2 [4]	MIC (μg/mL) of Exemplary Compounds in presence of fixed β-lactams: K. p. A-1797 KPC-2 VIM-4 [5]	MIC (μg/mL) of Exemplary Compounds in presence of fixed β-lactams: K. p. 11978 OXA-48 [6]
O=C(Cc1nnn(C2CNC2)n1)N[C@H]1Cc2cccc(C(=O)O)c2OB1O [Example 100, (R)-3-(2-(2-(azetidin-3-yl)-2H-tetrazol-5-yl)acetamido)-2-hydroxy-3,4-dihydro-2H-benzo[e][1,2]oxaborinine-8-carboxylic acid]	< 100	100 to 1000	< 100	< 100	< 100	C (C represents an MIC of <1 μg/mL)	C (C represents an MIC of <1 μg/mL)	C (C represents an MIC of <1 μg/mL)	C (C represents an MIC of <1 μg/mL)	B (B represents an MIC between 1 and 16 μg/mL inclusive)	C (C represents an MIC of <1 μg/mL)
Nc1ccc(-c2cn(CC(=O)N[C@H]3Cc4cccc(C(=O)O)c4OB3O)nn2)cn1 [Example 74, (R)-3-(2-(4-(6-aminopyridin-3-yl)-1H-1,2,3-triazol-1-yl)acetamido)-2-hydroxy-3,4-dihydro-2H-benzo[e][1,2]oxaborinine-8-carboxylic acid]	< 100	< 100	1000 to 10000	< 100	100 to 1000	C (C represents an MIC of <1 μg/mL)	C (C represents an MIC of <1 μg/mL)	B (B represents an MIC between 1 and 16 μg/mL inclusive)	B (B represents an MIC between 1 and 16 μg/mL inclusive)	A (A represents an MIC>16 μg/mL)	B (B represents an MIC between 1 and 16 μg/mL inclusive)
CNCc1c(CO)nnn1CC(=O)N[C@H]1Cc2cccc(C(=O)O)c2OB1O [Example 15, (R)-2-hydroxy-3-(2-(4-(hydroxymethyl)-5-((methylamino)methyl)-1H-1,2,3-triazol-1-yl)acetamido)-3,4-dihydro-2H-benzo[e][1,2]oxaborinine-8-carboxylic acid]	100 to 1000	100 to 1000	< 100	< 100	100 to 1000	C (C represents an MIC of <1 μg/mL)	C (C represents an MIC of <1 μg/mL)	B (B represents an MIC between 1 and 16 μg/mL inclusive)	C (C represents an MIC of <1 μg/mL)	B (B represents an MIC between 1 and 16 μg/mL inclusive)	B (B represents an MIC between 1 and 16 μg/mL inclusive)
Nc1nc(=O)c(Cc2cn(CC(=O)N[C@H]3Cc4cccc(C(=O)O)c4OB3O)nn2)c(N)[nH]1 [Example 64, (R)-3-(2-(4-((2,6-diamino-4-oxo-1,4-dihydropyrimidin-5-yl)methyl)-1H-1,2,3-triazol-1-yl)acetamido)-2-hydroxy-3,4-dihydro-2H-benzo[e][1,2]oxaborinine-8-carboxylic acid]	< 100	< 100	100 to 1000	< 100	< 100	C (C represents an MIC of <1 μg/mL)	C (C represents an MIC of <1 μg/mL)	C (C represents an MIC of <1 μg/mL)	B (B represents an MIC between 1 and 16 μg/mL inclusive)	B (B represents an MIC between 1 and 16 μg/mL inclusive)	B (B represents an MIC between 1 and 16 μg/mL inclusive)
N=C(N)NCc1cn(CC(=O)N[C@H]2Cc3cccc(C(=O)O)c3OB2O)nn1 [Example 3, (R)-3-(2-(4-(guanidinomethyl)-1H-1,2,3-triazol-1-yl)acetamido)-2-hydroxy-3,4-dihydro-2H-benzo[e][1,2]oxaborinine-8-carboxylic acid]	< 100	< 100	< 100	< 100	< 100	C (C represents an MIC of <1 μg/mL)	C (C represents an MIC of <1 μg/mL)	C (C represents an MIC of <1 μg/mL)	C (C represents an MIC of <1 μg/mL)	C (C represents an MIC of <1 μg/mL)	C (C represents an MIC of <1 μg/mL)
CCN(CC)Cc1cn(CC(=O)N[C@H]2Cc3cccc(C(=O)O)c3OB2O)nn1 [Example 27, (R)-3-(2-(4-((diethylamino)methyl)-1H-1,2,3-triazol-1-yl)acetamido)-2-hydroxy-3,4-dihydro-2H-benzo[e][1,2]oxaborinine-8-carboxylic acid]	< 100	< 100	100 to 1000	< 100	100 to 1000	C (C represents an MIC of <1 μg/mL)	C (C represents an MIC of <1 μg/mL)	B (B represents an MIC between 1 and 16 μg/mL inclusive)	B (B represents an MIC between 1 and 16 μg/mL inclusive)	B (B represents an MIC between 1 and 16 μg/mL inclusive)	B (B represents an MIC between 1 and 16 μg/mL inclusive)
O=C(Cn1cc(-c2cccnc2)nn1)N[C@H]1Cc2cccc(C(=O)O)c2OB1O [Example 12, (R)-2-hydroxy-3-(2-(4-(pyridin-3-yl)-1H-1,2,3-triazol-1-yl)acetamido)-3,4-dihydro-2H-benzo[e][1,2]oxaborinine-8-carboxylic acid]	< 100	< 100	1000 to 10000	< 100	100 to 1000	C (C represents an MIC of <1 μg/mL)	C (C represents an MIC of <1 μg/mL)	B (B represents an MIC between 1 and 16 μg/mL inclusive)	B (B represents an MIC between 1 and 16 μg/mL inclusive)	A (A represents an MIC>16 μg/mL)	B (B represents an MIC between 1 and 16 μg/mL inclusive)
NCc1nnn(CC(=O)N[C@H]2Cc3cccc(C(=O)O)c3OB2O)c1-c1ccsc1 [Example 108, (R)-3-(2-(4-(aminomethyl)-5-(thiophen-3-yl)-1H-1,2,3-triazol-1-yl)acetamido)-2-hydroxy-3,4-dihydro-2H-benzo[e][1,2]oxaborinine-8-carboxylic acid]	100 to 1000	< 100	< 100	< 100	< 100	C (C represents an MIC of <1 μg/mL)	B (B represents an MIC between 1 and 16 μg/mL inclusive)	B (B represents an MIC between 1 and 16 μg/mL inclusive)	C (C represents an MIC of <1 μg/mL)	C (C represents an MIC of <1 μg/mL)	B (B represents an MIC between 1 and 16 μg/mL inclusive)
